Test systems include NCI-H460 lung; SF-539 CNS; RPMI-8226 leukemia; HT29 colon; UO-31 renal; IGROV1 ovarian; SF-268 CNS; CCRF-CEM leukemia; SNB-19 CNS; NCI-H23 lung.
What all share (experiment): NCI tumour cell line growth inhibition, 48 h

Each structure is given as a SMILES string.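 These data come from cells grown in 96-well plates and exposed to compound for 48 hours at five concentrations. GI50 = concentration required for 50% inhibition of growth. At the TGI there is no net growth.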

For the molecule `Cc1ncnc2c1ccn2[C@@H]1C[C@H](Oc2cc(C(F)F)c(F)c3c2CNCC3)[C@@H](O)[C@H]1O`, the GI50 in the assay on NCI-H460 lung, with SF-539 CNS, in the assay on RPMI-8226 leukemia, in the assay on HT29 colon, in the assay on UO-31 renal and in the assay on IGROV1 ovarian was > 100 µM in each case. Moreover, the GI50 in the assay on SF-268 CNS, with CCRF-CEM leukemia and with SNB-19 CNS was > 100 µM in each case. Also, the TGI in the assay with NCI-H460 lung, in the assay with SF-539 CNS, in the assay on RPMI-8226 leukemia, in the assay on HT29 colon, with UO-31 renal and in the assay on IGROV1 ovarian was > 100 µM throughout. Also, the TGI with SF-268 CNS, with CCRF-CEM leukemia and with SNB-19 CNS was > 100 µM throughout.

Consider `CN1C(=O)[C@@H](CC2CCCC2)N(C2CCCC2)c2nc(Nc3cc(Cl)c(O)c(Cl)c3)ncc21`, for which the GI50 with NCI-H460 lung is 23.5 µM; with SF-539 CNS, 19.8 µM; with RPMI-8226 leukemia, 10.4 µM; in the assay with HT29 colon it was 26.7 µM; with IGROV1 ovarian it was 32.9 µM; with SF-268 CNS, 33 µM. Moreover, the figures for the GI50 in the assay with CCRF-CEM leukemia, in the assay on SNB-19 CNS and with NCI-H23 lung were 18.6 µM, 28.3 µM and 31.3 µM, respectively. Moreover, the TGI in the assay on NCI-H460 lung was 90.3 µM; in the assay on SF-539 CNS it was > 100 µM; in the assay with RPMI-8226 leukemia, 49 µM; with HT29 colon, 88.3 µM; in the assay with IGROV1 ovarian it was > 100 µM; in the assay on SF-268 CNS, > 100 µM. The TGI with CCRF-CEM leukemia is 84.2 µM; in the assay with SNB-19 CNS, > 100 µM; with NCI-H23 lung, > 100 µM.

As to `Cc1[nH]c2ccccc2c1/C=C/c1c(C)[nH]c2ccccc12`, the TGI with NCI-H460 lung, in the assay on SF-539 CNS, in the assay on RPMI-8226 leukemia, in the assay on HT29 colon, in the assay with UO-31 renal and in the assay on IGROV1 ovarian was > 100 µM each time. Moreover, the TGI in the assay with CCRF-CEM leukemia and with NCI-H23 lung was > 100 µM throughout.

As to `COC12OCCN(C)C1=CC(=O)C1N=NCC12` (configuration not stated), the TGI with NCI-H460 lung, with SF-539 CNS, in the assay with RPMI-8226 leukemia, in the assay with HT29 colon, in the assay on UO-31 renal and in the assay with IGROV1 ovarian was > 100 µM in each case. Moreover, the TGI in the assay with CCRF-CEM leukemia and in the assay with NCI-H23 lung was > 100 µM throughout.

Consider `O=C(O)C1CC[N-]CC1.O=C(O)C1CC[N-]CC1.[NH2-].[NH2-].[Pt+4]`, for which the GI50 in the assay on NCI-H460 lung, in the assay on SF-539 CNS, in the assay with RPMI-8226 leukemia, with HT29 colon, in the assay on IGROV1 ovarian and in the assay on SF-268 CNS was > 100 µM throughout. Moreover, the GI50 in the assay on CCRF-CEM leukemia, in the assay on SNB-19 CNS and in the assay on NCI-H23 lung was > 100 µM in each case. Also, the TGI in the assay with NCI-H460 lung, in the assay on SF-539 CNS, in the assay on RPMI-8226 leukemia, in the assay with HT29 colon, in the assay with IGROV1 ovarian and with SF-268 CNS was > 100 µM each time. In addition, the TGI in the assay on CCRF-CEM leukemia, in the assay with SNB-19 CNS and in the assay with NCI-H23 lung was > 100 µM each time.

With `CN(C)CC1CCCC/C1=N\OC(=O)c1ccccc1` (configuration not stated), the TGI in the assay on NCI-H460 lung, with SF-539 CNS, with RPMI-8226 leukemia, in the assay with HT29 colon, in the assay on UO-31 renal and in the assay with IGROV1 ovarian was > 100 µM throughout. Besides, the TGI in the assay with SF-268 CNS, with CCRF-CEM leukemia and in the assay on NCI-H23 lung was > 100 µM in each case.

Regarding `COc1cc(C2C=C(C)N=C3SC=C(C)N32)cc(OC)c1OC` (configuration not stated), the GI50 in the assay with NCI-H460 lung was 2.11 µM; in the assay on SF-539 CNS it was 0.353 µM; in the assay on RPMI-8226 leukemia, 0.385 µM; with UO-31 renal, 1.13 µM; in the assay with IGROV1 ovarian, 2.22 µM; in the assay on SF-268 CNS it was 1.4 µM. Moreover, the GI50 in the assay with CCRF-CEM leukemia is 0.312 µM; with SNB-19 CNS it was 2.32 µM; in the assay on NCI-H23 lung, 1.77 µM. Moreover, the TGI in the assay with NCI-H460 lung came to 7.33 µM; with SF-539 CNS, 4.6 µM; in the assay with RPMI-8226 leukemia it was 2.57 µM; with UO-31 renal, 2.47 µM; with IGROV1 ovarian, 7.3 µM; in the assay with SF-268 CNS, 11.4 µM. For the same molecule, the values for the TGI in the assay on CCRF-CEM leukemia, in the assay with SNB-19 CNS and in the assay with NCI-H23 lung were > 100 µM, 15.8 µM and 5.41 µM, respectively.

For `O=C1CCC2(c3ccccc3)OCC([C@@H](O)c3ccccc3)N12` (some centres not stated), the TGI with NCI-H460 lung, with SF-539 CNS, with RPMI-8226 leukemia, with HT29 colon, with IGROV1 ovarian and in the assay with SF-268 CNS was > 100 µM throughout. For the same molecule, the TGI in the assay with CCRF-CEM leukemia, in the assay with SNB-19 CNS and in the assay with NCI-H23 lung was > 100 µM in each case.

`O=C1CC[C@@H](S(=O)(=O)c2ccccc2)[C@H](/C=C/c2ccccc2)O1`: the TGI with NCI-H460 lung, in the assay on SF-539 CNS, in the assay on RPMI-8226 leukemia, in the assay on HT29 colon, in the assay with UO-31 renal and with IGROV1 ovarian was > 100 µM in each case. Besides, the TGI in the assay with CCRF-CEM leukemia, in the assay on SNB-19 CNS and in the assay with NCI-H23 lung was > 100 µM in each case.

In the case of `NC(=O)NC(=O)Nc1ccc(Br)cc1`, the TGI in the assay with NCI-H460 lung was > 36.4 µM; in the assay on SF-539 CNS, > 100 µM; in the assay with RPMI-8226 leukemia, > 35 µM; in the assay with UO-31 renal, > 100 µM; in the assay with IGROV1 ovarian, > 100 µM; with SF-268 CNS it was > 16.5 µM. Besides, the TGI is > 15.3 µM in the assay with CCRF-CEM leukemia, > 39.3 µM in the assay with SNB-19 CNS and > 33.3 µM with NCI-H23 lung.

`COC(=O)C1C(=O)C(C(=O)OC)C2CCC1N2C` (configuration not stated): the TGI in the assay on NCI-H460 lung, in the assay with SF-539 CNS, in the assay with RPMI-8226 leukemia, with HT29 colon, in the assay with UO-31 renal and with IGROV1 ovarian was > 100 µM in each case. Moreover, the TGI in the assay with SF-268 CNS was > 100 µM; in the assay on CCRF-CEM leukemia, > 78.1 µM; with SNB-19 CNS, > 100 µM.

With `CC(=O)NNc1nc(C)c(C(=O)/C=C/c2ccc(N(C)C)cc2)s1`, the TGI with NCI-H460 lung, in the assay on SF-539 CNS, with RPMI-8226 leukemia, with HT29 colon, in the assay on UO-31 renal and in the assay with IGROV1 ovarian was > 100 µM each time. Moreover, the TGI in the assay on SF-268 CNS, in the assay on CCRF-CEM leukemia and with NCI-H23 lung was > 100 µM throughout.

The record behind these values is PubChem BioAssay (NCI).
